Tests used:
[1] = tested on: CaMKKβ mRNA; assay: qPCR of CaMKKβ mRNA in prostate cancer cells; format: cell-based, human; settings: for CaMKKβ mRNA levels: R1881 0.1, 1, 10 nM, 24 h
Procedure: (§1) FIG. 1. Androgens increase CaMKKβ levels in an AR-dependent manner. LNCaP or VCaP cells were treated for 24 h with vehicle or increasing concentrations of the synthetic androgen R1881 (A—0.1, 1, and 10 nM; B—0.01, 0.1, 1, and 10 nM). A, after treatment, cells were lysed, and RNA was isolated and reversed transcribed. The expression of CaMKKβ was assessed using qPCR. B, after treatment, cells were subjected to western blot analysis and subsequent densitometry (top). CaMKKβ protein levels were normalized to GAPDH loading control. A and B, results are expressed as fold induction over vehicle-treated cells+SE (n=3). *, significant changes from vehicle-treated cells. C, LNCaP cells were transiently transfected with mock or Stealth siRNAs targeting a negative control (siLacZ) or CaMKKβ (#1-3). Two days later, cells were treated for 24 h+/−10 nM R1881. Whole-cell extracts were subjected to western blot analysis and densitometry (top) as described in B. *, significant changes from mock-transfected cells. D, LNCaP cells were transfected as described in C with mock or Stealth siRNAs targeting LacZ or AR and treated for 24 h. The expression of CaMKKβ was assessed as in A using qPCR.
FIG. 9. Identification of the ARE that regulates CaMKKβ expression. A, LNCaP cells were pretreated for 1 h with vehicle or 1 mg/mL cycloheximide followed by vehicle or 10 nM R1881 for 24 h. CaMKKβ or CXCR4 mRNA levels were quantified using qPCR. Results are expressed as fold induction over vehicle (no R1881)-treated cells±SE (n=3). *, significant changes from vehicle-treated cells. B, LNCaP cells were treated with vehicle (V) or 10 nM R1881 for 1 or 4 h. Cross-linked chromatin was immunoprecipitated with indicated antibodies. […]
(§2) RNA isolation, cDNA preparation, and quantitative and standard reverse transcription (RT)-PCR. RNA isolation, cDNA preparation and quantitative RT-PCR (qPCR) were performed as previously described using 36B4 as a control (12). […]

[2] = tested on: CaMKKβ protein; assay: Western blot of CaMKKβ protein in prostate cancer cells; format: cell-based, human; settings: R1881 0.01, 0.1, 1, 10 nM, 24 h
Procedure: as §1
(§3) Western blot analysis. […] For each sample, protein levels were determined by densitometry using the ImageJ software (NIH) and normalizing to indicated controls.

[3] = tested on: AR binding region ~2.3 kb upstream of the CaMKKβ transcriptional start site; assay: Chromatin immunoprecipitation of AR at the CaMKKβ upstream region; format: cell-based, human; settings: LNCaP; 10 nM R1881 for 1 or 4 h
Procedure: (§4) FIG. 9. Identification of the ARE that regulates CaMKKβ expression. A, LNCaP cells were pretreated for 1 h with vehicle or 1 mg/mL cycloheximide followed by vehicle or 10 nM R1881 for 24 h. CaMKKβ or CXCR4 mRNA levels were quantified using qPCR. Results are expressed as fold induction over vehicle (no R1881)-treated cells±SE (n=3). *, significant changes from vehicle-treated cells. B, LNCaP cells were treated with vehicle (V) or 10 nM R1881 for 1 or 4 h. Cross-linked chromatin was immunoprecipitated with indicated antibodies. The precipitated DNA was amplified using primers spanning a region identified using ChIP on Chip data as a potential AR-binding site (indicated in top schematic) or a distal upstream region (negative control). The results are presented as percent input±SE (n=3). *, significant changes from IgG controls. C, various enhancer luciferase reporter constructs (depicted in top model) were transfected into LNCaP cells and treated overnight+/−10 nM R1881. After treatment, cells were harvested and assayed for luciferase activity. Luciferase values were normalized to β-galactosidase control. Data are the mean relative light units (RLUs)+SEM for one representative experiment performed in triplicate (n=3). *, significant changes from vehicle-treated cells. […]

[4] = tested on: LNCaP cells; assay: Boyden dual chamber migration assay; format: cell-based, human
Procedure: FIG. 7. CaMKKβ activity in the androgen-mediated migration and invasion of prostate cancer cells. A, LNCaP cells were plated in 96-well plates and grown for 3 d. […] On d 10, cells were lysed and the relative number of cells was measured with the fluorescent DNA binding dye FluoReporter Blue. Each sample was performed in triplicate, and results from a representative experiment are shown. […] Cells were then dissociated and reseeded into the top chamber for a Boyden migration or Matrigel extracellular matrix invasion assay. Fresh medium with the corresponding treatments was added to the top and bottom chambers while either no chemoattractant or 5% FBS (serum) was added to the bottom chamber. After 16 h, migrated cells were fixed, stained and counted in three different microscopic fields and added together. […] C top, LNCaP cells were transfected with indicated siRNAs. […] D right, LNCaP cells stably expressing either GAL4 (control) or CaMKKβ were subjected to a migration assay as described in B using +/-5% FBS as chemoattractant. The results are expressed as mean+SE (n=3). *, significant changes from LNCaP-GAL4 cells. D left, western blot confirming CaMKKβ […]expression. FIG. 11. Androgen-mediated migration occurs through a CaMKKβ-AMPK-dependent pathway. […] Results are expressed as fold induction/phosphorylation over double vehicle-treated cells+SE (n=3). *, significant changes from vehicle-treated cells. […] Results are expressed as fold induction/phosphorylation over LNCaP-GAL4 vehicle-treated cells+SE (n=3). *, significant changes from LNCaP-GAL4 vehicle-treated cells. […] The results are expressed as mean±SE (n=2). *, P<0.05 indicates significant changes from double vehicle-treated cells. ^#, P<0.05 indicates significant decreases from vehicle (no compound C)-treated cells. […] ACC is a direct target of AMPK and thus, was used as a readout of AMPK catalytic activity. […] Results are expressed as fold induction/phosphorylation over double vehicle-treated cells+SE (n=2). *, P<0.05 indicates significant changes from double vehicle-treated cells. […]

[5] = tested on: CXCR4 mRNA; assay: qPCR of CXCR4 mRNA in LNCaP cells; format: cell-based, human; settings: 1 h 1 mg/mL cycloheximide, then 10 nM R1881 24 h
Procedure: as §4, with “control.” for “control. Data are the mean relative light units (RLUs)+SEM for one representative experiment performed in triplicate (n=3). *, significant changes from vehicle-treated cells.”
as §2

[6] = tested on: AMPK; assay: Western blot of phospho-ACC (readout of AMPK catalytic activity); format: cell-based, human; settings: LNCaP; 1 h 1, 10 or 40 mM compound C, overnight +/-10 nM R1881
Procedure: FIG. 13. AMPK and androgen-mediated prostate cancer cell migration. A, LNCaP cells were pretreated for 1 h with vehicle or increasing concentrations of compound C (10 or 40 mM) prior to overnight treatment+/−10 nM R1881 or 1 mM AICAR. Cells were then subjected to a migration assay as described in FIG. 7. The results are expressed as mean±SE (n=2). *, P<0.05 indicates significant changes from double vehicle-treated cells. ^#, P<0.05 indicates significant decreases from vehicle (no compound C)-treated cells. B, LNCaP cells were pretreated for 1 h with vehicle, 1, 10 or 40 mM compound C prior to overnight treatment+/−10 nM R1881. Cell lysates were then subjected to western blot analysis and subsequent densitometry (top). ACC is a direct target of AMPK and thus, was used as a readout of AMPK catalytic activity. Phospho-ACC (p-ACC) levels were normalized to total ACC. Results are expressed as fold induction/phosphorylation over double vehicle-treated cells+SE (n=2). *, P<0.05 indicates significant changes from double vehicle-treated cells. […]
as §3

[7] = tested on: circulating tumor cells; settings: patients having a castration-resistant type cancer; cited from earlier work
[8] = tested on: distant metastases; settings: prostate cancer patients, clinical trials; cited from earlier work

SMILES: C[C@]1(O)CC[C@H]2[C@@H]3CCC4=CC(=O)CCC4=C3C=C[C@@]21C [R1881, Methyltrienolone]
- CaMKKβ mRNA levels ([1]; LNCaP): increased in a dose-dependent manner
- CaMKKβ mRNA levels ([1]; VCaP): increased in a dose-dependent manner
- CaMKKβ protein levels ([2]; LNCaP): dose-dependent increase
- CaMKKβ protein levels ([2]; VCaP): dose-dependent increase
- AR recruitment to the CaMKKβ upstream region [3]: recruited to this region of the promoter within one hour

SMILES: NC(=O)c1ncn([C@@H]2O[C@H](CO)[C@@H](O)[C@H]2O)c1N [AICAR, 5-aminoimidazole-4-carboxamide 1-b-D-ribo-furanoside]
- cell migration, treatment alone ([4]; overnight 1 mM AICAR, no androgen): sufficient to increase cell migration

SMILES: C[C@@H]1C[C@@H]([C@H](O)CC2CC(=O)NC(=O)C2)C(=O)[C@@H](C)C1 [cycloheximide, Cycloheximide]
- R1881-mediated increase in CaMKKβ mRNA levels ([1]; LNCaP, 1 h 1 mg/mL cycloheximide, then 10 nM R1881 24 h): did not block
- expression of secondary androgen target genes (ex. CXCR4) [5]: inhibits the expression of secondary androgen target genes

SMILES: c1cc(-c2cnn3cc(-c4ccc(OCCN5CCCCC5)cc4)cnc23)ccn1 [compound C]
- androgen-mediated cell migration ([4]; 1 h pretreatment with compound C (10 or 40 mM), overnight 10 nM R1881): completely abolished androgen-mediated cell migration
- AMPK kinase activity (phospho-ACC levels) [6]: inhibited its kinase activity

SMILES: CNC(=O)c1ccc(N2C(=S)N(c3ccc(C#N)c(C(F)(F)F)c3)C(=O)C2(C)C)cc1F [MDV3100]
- number of circulating tumor cells in patients [7]: decreases the number of circulating tumor cells in approximately half of the treated patients

SMILES: CC(C)C[C@H](NC(=O)[C@@H](COC(C)(C)C)NC(=O)[C@H](Cc1ccc(O)cc1)NC(=O)[C@H](CO)NC(=O)[C@H](Cc1c[nH]c2ccccc12)NC(=O)[C@H](Cc1cnc[nH]1)NC(=O)[C@@H]1CCC(=O)N1)C(=O)N[C@@H](CCCNC(=N)N)C(=O)N1CCC[C@H]1C(=O)NNC(N)=O [goserelin]
- incidences of distant metastases [8]: reduced incidences of distant metastases
